# What was measured:
# CDK16 + Y = biological target: T1, CDK16 + Y (Homo sapiens, UniProt Q00536); assay: NanoBRET K192; assay type: cell-based; conditions: HEK293
# T1 construct: purchased Promega (NanoBRET Target Engagement K192 Kinase Selectivity System)
# Method: (§1) The K192 selectivity assay was run according to the Draft Promega technical manual, NanoBRET^TM Target Engagement K192 Kinase Selectivity System. Reagents were supplied by Promega (Promega NP 4101). For the assay, DNA from the prepared kinase vector panel plates A and B were mixed with Fugene in 96-well plates (Corning 3917) and incubated at room temperature for 30 min. The NanoLuc® Low control vector pNL1.1.CMV [Nluc/CMV] Vector (Cat.# N1091) and the transfection control vector NanoLuc®-HIPK2 Fusion Vector (Cat.# NV3221) were used as controls.
# (§2) HEK293 cells were grown to 75–95% confluency in DMEM (Gibco 11995-065) supplemented with FBS (Avantor 97068-085) at 37 °C in […]. On the first day of the assay, cells were harvested and resuspended in Opti-MEM (Gibco 11058-021) supplemented with 1% FBS (Avantor 97068-085) at 2.5 × 10^5 cells per mL. A volume of 60 μL of cell suspension was mixed with 10 μL of prepared DNA (10X concentration) and 30 μL of Fugene (30 μL/mL in Opti-MEM) as outlined by Promega and incubated overnight at 37 °C in a 5% CO2 incubator.
# (§3) On day two of the assay, 5 μL of 20X K10 tracer was prepared and added at concentrations recommended by Promega. Then, 10 μL of test compounds at 100 μM in Opti-MEM (diluted from a 10 mM solution in DMSO) was added to the test wells while an equivalent volume of Opti-MEM was added to the high-control wells. Plates were kept at 37 °C in a 5% CO2 incubator for two hours. After two hours, plates were allowed to equilibrate to room temperature for 15 min. A solution of 3X Complete Substrate plus Inhibitor Solution was freshly prepared, consisting of a 1:166 dilution of NanoBRET™ Nano-Glo® Substrate plus a 1:500 dilution of Extracellular NanoLuc® Inhibitor in Opti-MEM® medium without serum or phenol red. A 50 μL volume of the 3X Complete Substrate plus Inhibitor Solution was added to each assay well, including control wells. After 2–3 min, the plate was shaken at 300 RPM for 10 s, and the donor emission wavelength (450 nm) and acceptor emission wavelength (610 nm) were measured using the Glomax® Discover System.
# (§4) As a quality check, the donor signal-to-background ratio was calculated for each individual kinase by dividing the mean donor signal for each kinase by the mean donor signal for the signal-to-background control wells. Fractional occupancy of the test drug for each kinase was determined using the following formula:Occupancy (%) = [1 − (Sample − Bottom)/(Top − Bottom)] × 100 where
# RPS6KA3 = biological target: T2, RPS6KA3 (Homo sapiens, UniProt P51812); assay: NanoBRET K192; assay type: cell-based; conditions: HEK293
# T2 construct: purchased Promega (NanoBRET Target Engagement K192 Kinase Selectivity System)
# Method: as §1, §2, §3, §4
# MLTK = biological target: T3, MLTK (Homo sapiens, UniProt Q9NYL2); assay: NanoBRET K192; assay type: cell-based; conditions: HEK293
# T3 construct: purchased Promega (NanoBRET Target Engagement K192 Kinase Selectivity System)
# Method: as §1, §2, §3, §4
# CDK6 + D1 = biological target: T4, CDK6 + D1 (Homo sapiens, UniProt Q00534); assay: NanoBRET K192; assay type: cell-based; conditions: HEK293
# T4 construct: purchased Promega (NanoBRET Target Engagement K192 Kinase Selectivity System)
# Method: as §1, §2, §3, §4
# DYRK1A = biological target: T5, DYRK1A (Homo sapiens, UniProt Q13627); assay: NanoBRET dose-response DYRK1A; assay type: cell-based; conditions: IC50 not determined, poor assay window
# T5 construct: purchased Promega (NanoBRET Target Engagement K192 Kinase Selectivity System)
# [1] = Hepatocyte stability, mouse; assay type: in vitro ADME; conditions: male, CD-1, cryopreserved hepatocytes, over 2 h
# Method: Human cryopreserved hepatocytes were supplied by BioIVT (lot QZW, 10 pooled donors, Westbury, NY, USA). Mouse cryopreserved hepatocytes were supplied by BioIVT (lot ZPG, pooled male CD-1). Vials of cryopreserved hepatocytes were removed from storage and thawed in a 37 °C water bath with gentle shaking, and then the contents were poured into a 50 mL thawing medium conical tube. Vials were centrifuged at 100× g for 10 min at room temperature. The thawing medium was aspirated, and hepatocytes were resuspended with a serum-free incubation medium to yield ~1.5 × 10^6 cells/mL. Cell viability and density were counted using AO/PI fluorescence staining, and then cells were diluted with a serum-free incubation medium to a working cell density of 0.5 × 10^6 viable cells/mL. Aliquots of 198 μL of hepatocytes were dispensed into each well of a 96-well noncoated plate. The plate was placed in an incubator for approximately 10 min. […] Peak areas were determined from extracted ion chromatograms, and the slope value, k, was determined by linear regression of the natural logarithm of the remaining percentage of the parent drug vs. incubation time curve. The intrinsic clearance (CLint in μL/min/10^6 cells) was calculated using the relationship CLint = kV/N, where V is the incubation volume (0.2 mL) and N is the number of hepatocytes per well (0.1 × 10^6 cells). […]
# A549-ACE2 cells = assay: CellTiter-Glo cytotoxicity assay; assay type: cell-based, Human
# Method: (§5) A549-ACE2 cells were maintained in low-glucose DMEM (Gibco, Waltham, MA, USA) supplemented with 10% FBS, 1% NEAA, and 1% L-glutamine. No antibiotics were used. Cells were plated at 2000 cells/well in a 384-well plate (Costar, Glendale, AZ, USA) and incubated overnight (37 °C, 5% CO2) before adding the compound. Compounds were added in quadruplicate and incubated for 48 h. DMSO percentage was constant across all concentrations of the compound. Cell viability was measured using CellTiter-Glo2 (Promega, Madison, WI, USA) and the luminescence signal was read on a GloMax plate reader (Promega, Madison, WI, USA). Dose–response analysis was performed using GraphPad Prism.
# [2] = CellTiter-Glo cytotoxicity assay; assay type: cell-based, Human; conditions: human, A549-ACE2 cells, 48 h, CellTiter-Glo, quadruplicate
# Method: as §5
# SARS-CoV-2 = SARS-CoV-2 assay in A549-ACE2 cells; assay type: cell-based
# CLK1 = biological target: T6, CLK1 (Homo sapiens, UniProt P49759); assay: NanoBRET dose-response CLK1; assay type: cell-based
# T6 construct: purchased Promega (NanoBRET Target Engagement K192 Kinase Selectivity System)
# T6 sequence (P49759 whole entry): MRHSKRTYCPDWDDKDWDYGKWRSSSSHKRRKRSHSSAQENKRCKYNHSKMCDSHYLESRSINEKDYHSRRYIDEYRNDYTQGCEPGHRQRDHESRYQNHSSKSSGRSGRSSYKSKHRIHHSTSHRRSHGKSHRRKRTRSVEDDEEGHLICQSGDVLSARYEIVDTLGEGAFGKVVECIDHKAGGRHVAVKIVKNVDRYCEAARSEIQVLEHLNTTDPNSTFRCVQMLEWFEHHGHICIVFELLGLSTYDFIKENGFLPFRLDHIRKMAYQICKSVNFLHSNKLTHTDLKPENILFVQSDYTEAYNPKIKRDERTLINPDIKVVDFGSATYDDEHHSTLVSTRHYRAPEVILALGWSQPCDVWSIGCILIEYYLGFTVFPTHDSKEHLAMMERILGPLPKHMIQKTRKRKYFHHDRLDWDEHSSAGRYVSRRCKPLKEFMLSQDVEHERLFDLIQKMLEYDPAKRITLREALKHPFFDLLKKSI
# T4 sequence (Q00534 whole entry): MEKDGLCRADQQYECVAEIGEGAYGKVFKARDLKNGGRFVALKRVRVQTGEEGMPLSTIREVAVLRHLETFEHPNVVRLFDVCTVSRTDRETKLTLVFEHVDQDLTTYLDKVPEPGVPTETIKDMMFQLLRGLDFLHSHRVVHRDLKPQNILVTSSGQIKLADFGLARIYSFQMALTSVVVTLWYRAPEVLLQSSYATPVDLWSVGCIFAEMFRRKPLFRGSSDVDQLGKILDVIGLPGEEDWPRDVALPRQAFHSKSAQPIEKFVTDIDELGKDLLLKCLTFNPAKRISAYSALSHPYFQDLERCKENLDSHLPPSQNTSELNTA
# T4 sequence (P24385 whole entry partner): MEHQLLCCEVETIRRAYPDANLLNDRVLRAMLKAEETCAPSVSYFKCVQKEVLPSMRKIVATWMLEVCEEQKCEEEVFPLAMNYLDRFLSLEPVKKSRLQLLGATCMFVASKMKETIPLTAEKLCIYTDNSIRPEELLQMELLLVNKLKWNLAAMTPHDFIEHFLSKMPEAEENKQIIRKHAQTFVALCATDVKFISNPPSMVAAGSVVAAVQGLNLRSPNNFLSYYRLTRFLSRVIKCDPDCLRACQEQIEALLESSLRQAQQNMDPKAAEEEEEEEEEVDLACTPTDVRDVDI
# T1 sequence (Q00536 whole entry): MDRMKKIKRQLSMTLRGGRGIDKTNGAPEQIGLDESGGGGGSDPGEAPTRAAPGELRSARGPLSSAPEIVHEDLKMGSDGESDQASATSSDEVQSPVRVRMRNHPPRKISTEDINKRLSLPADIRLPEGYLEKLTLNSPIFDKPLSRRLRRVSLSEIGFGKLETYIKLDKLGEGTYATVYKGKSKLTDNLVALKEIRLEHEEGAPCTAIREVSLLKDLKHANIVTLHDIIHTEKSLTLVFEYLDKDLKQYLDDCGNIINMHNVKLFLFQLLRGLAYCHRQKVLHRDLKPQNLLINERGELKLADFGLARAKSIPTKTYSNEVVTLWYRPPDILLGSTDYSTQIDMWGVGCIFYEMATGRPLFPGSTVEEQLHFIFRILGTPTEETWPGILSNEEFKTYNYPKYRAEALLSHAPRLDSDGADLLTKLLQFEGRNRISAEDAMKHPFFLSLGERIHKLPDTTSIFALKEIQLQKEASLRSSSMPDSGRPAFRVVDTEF
# T1 sequence (Q8ND76 whole entry partner): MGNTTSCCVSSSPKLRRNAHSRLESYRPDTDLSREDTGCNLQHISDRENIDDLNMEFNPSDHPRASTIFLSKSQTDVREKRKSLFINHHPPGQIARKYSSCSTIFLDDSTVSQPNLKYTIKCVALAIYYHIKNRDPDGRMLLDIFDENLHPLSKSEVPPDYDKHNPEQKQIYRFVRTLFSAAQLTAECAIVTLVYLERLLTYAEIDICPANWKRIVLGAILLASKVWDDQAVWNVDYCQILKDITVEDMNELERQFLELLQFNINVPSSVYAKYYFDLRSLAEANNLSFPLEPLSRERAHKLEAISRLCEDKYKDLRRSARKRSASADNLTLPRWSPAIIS
# T3 sequence (Q9NYL2 whole entry): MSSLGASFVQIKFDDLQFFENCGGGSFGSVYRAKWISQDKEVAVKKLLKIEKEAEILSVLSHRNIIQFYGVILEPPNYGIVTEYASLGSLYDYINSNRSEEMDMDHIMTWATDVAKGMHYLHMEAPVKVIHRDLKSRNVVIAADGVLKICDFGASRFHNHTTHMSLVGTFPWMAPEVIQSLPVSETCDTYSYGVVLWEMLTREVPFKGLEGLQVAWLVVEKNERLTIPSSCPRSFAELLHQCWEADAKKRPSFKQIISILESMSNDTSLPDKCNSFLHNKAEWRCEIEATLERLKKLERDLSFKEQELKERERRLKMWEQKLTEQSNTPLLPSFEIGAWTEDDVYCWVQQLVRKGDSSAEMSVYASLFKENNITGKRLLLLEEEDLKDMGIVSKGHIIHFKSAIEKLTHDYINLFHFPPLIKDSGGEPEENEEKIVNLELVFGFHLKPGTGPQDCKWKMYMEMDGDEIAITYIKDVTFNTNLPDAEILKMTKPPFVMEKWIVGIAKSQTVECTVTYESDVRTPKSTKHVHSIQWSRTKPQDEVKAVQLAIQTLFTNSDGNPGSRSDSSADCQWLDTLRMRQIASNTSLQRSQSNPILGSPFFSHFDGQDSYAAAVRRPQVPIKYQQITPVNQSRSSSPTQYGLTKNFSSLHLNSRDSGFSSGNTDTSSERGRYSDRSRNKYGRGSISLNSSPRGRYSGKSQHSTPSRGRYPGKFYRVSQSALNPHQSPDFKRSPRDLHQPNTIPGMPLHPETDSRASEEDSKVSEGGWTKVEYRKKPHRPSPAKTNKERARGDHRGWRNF
# T2 sequence (P51812 whole entry): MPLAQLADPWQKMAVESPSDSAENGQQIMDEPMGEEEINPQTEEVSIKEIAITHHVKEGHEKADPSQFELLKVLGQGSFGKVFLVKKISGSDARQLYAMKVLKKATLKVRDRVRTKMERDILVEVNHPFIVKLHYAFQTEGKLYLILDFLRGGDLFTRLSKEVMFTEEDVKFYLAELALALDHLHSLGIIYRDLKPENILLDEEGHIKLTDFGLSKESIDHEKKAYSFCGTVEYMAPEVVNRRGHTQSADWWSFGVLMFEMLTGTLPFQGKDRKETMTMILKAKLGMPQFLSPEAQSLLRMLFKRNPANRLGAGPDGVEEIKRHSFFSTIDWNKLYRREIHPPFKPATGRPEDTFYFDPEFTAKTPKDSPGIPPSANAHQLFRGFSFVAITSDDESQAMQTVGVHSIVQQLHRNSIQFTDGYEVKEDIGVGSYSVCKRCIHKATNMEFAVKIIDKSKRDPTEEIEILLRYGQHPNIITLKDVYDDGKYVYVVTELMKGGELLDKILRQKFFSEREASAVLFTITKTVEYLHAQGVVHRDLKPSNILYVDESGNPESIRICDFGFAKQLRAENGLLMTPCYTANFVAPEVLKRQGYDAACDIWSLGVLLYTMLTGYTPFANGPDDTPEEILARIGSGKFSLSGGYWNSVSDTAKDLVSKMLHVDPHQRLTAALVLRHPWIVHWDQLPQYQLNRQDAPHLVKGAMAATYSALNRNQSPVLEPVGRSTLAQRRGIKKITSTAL
smiles,measurement,setting,value
"CCC(=O)Nc1cc(Nc2cc(NC3CC3)n3ncc(C#N)c3n2)c(F)cc1N1CCC[C@H](NC)C1 [Compound 2, (S)-N-(5-((3-cyano-7-(cyclopropylamino)pyrazolo[1,5-a]pyrimidin-5-yl)amino)-4-fluoro-2-(3-(methylamino)piperidin-1-yl)phenyl)propionamide]",receptor occupancy at 10 µM,CDK16 + Y,25.8%
same,receptor occupancy at 10 µM,RPS6KA3,1.8%
same,receptor occupancy at 10 µM,MLTK,1.1%
same,receptor occupancy at 10 µM,CDK6 + D1,11.9%
same,occupancy in the dose-response experiment,DYRK1A,no occupancy was observed up to 10 μM
same,CLint scaled at 1 μM,[1],180 mL/min/kg
same,cytotoxicity in A549-ACE2 cells,A549-ACE2 cells; 0.1 μM,no toxicity
same,cytotoxicity in A549-ACE2 cells,A549-ACE2 cells; 1.0 μM,low toxicity
same,"viability at 48 h, 0.1 µM",[2]; 0.1 μM,100%
same,"viability at 48 h, 1 µM",[2]; 1.0 μM,76%
same,IC90,SARS-CoV-2; Severe acute respiratory syndrome coronavirus 2,2200 nM
same,IC50,"SARS-CoV-2; Severe acute respiratory syndrome coronavirus 2, triplicate, read-out: SARS-CoV-2 pIC50 (converted)",316 nM
same,IC50,CLK1,29000 nM
